Measured values reported in the supplement of paper PMC10627819.

Assays:
Test in all cases: Bliss interaction score (quartile over a dose matrix) (fitness difference); higher = more antagonism (negative = synergy)
B. subtilis 168 = test system: B. subtilis 168
Procedure, shortened: (§1)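 Growth in each well was taken as OD595 at entry into stationary phase. Dividing by the plate's robust no-drug mean and capping at 1 gave fitness, and single-drug fitness was inferred from the combination data. The Bliss score, observed minus product-expected fitness, is summarised by quartiles over technical, biological and donor/recipient replicates.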

S. aureus DSM 20231 = test system: S. aureus DSM 20231
Procedure, shortened: as §1

S. aureus Newman = test system: S. aureus Newman
Procedure, shortened: as §1

S. pneumoniae D39V = test system: S. pneumoniae D39V
Procedure, shortened: as §1
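Also: first quartile when negative (synergy) and third quartile when positive (antagonism).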

Row | SMILES | Bliss interaction score (B. subtilis 168) | Bliss interaction score (S. aureus DSM 20231) | Bliss interaction score (S. aureus Newman) | Bliss interaction score (S. pneumoniae D39V) | Bliss interaction score (B. subtilis 168; main component drawn) | Bliss interaction score (S. aureus DSM 20231; main component drawn) | Bliss interaction score (S. aureus Newman; main component drawn) | Bliss interaction score (S. pneumoniae D39V; main component drawn)
1 | CC(=O)O[C@H]1C[C@@]2(C)[C@@H](C[C@@H](O)[C@H]3[C@@]4(C)CC[C@@H](O)[C@@H](C)[C@@H]4CC[C@@]32C)/C1=C(\CCC=C(C)C)C(=O)O [Fusidic acid] + Cc1cc(NS(=O)(=O)c2ccc(N)cc2)no1 [Sulfamethoxazol] | 0.0933 | -0.0234 | -0.026 | 0.0975 | – | – | – | –
2 | CC(=O)O[C@H]1C[C@@]2(C)[C@@H](C[C@@H](O)[C@H]3[C@@]4(C)CC[C@@H](O)[C@@H](C)[C@@H]4CC[C@@]32C)/C1=C(\CCC=C(C)C)C(=O)O [Fusidic acid] + Cc1ncc([N+](=O)[O-])n1CCO [Metronidazole] | 0.0703 | -0.0408 | -0.0202 | 0.133 | – | – | – | –
3 | CC(=O)O[C@H]1C[C@@]2(C)[C@@H](C[C@@H](O)[C@H]3[C@@]4(C)CC[C@@H](O)[C@@H](C)[C@@H]4CC[C@@]32C)/C1=C(\CCC=C(C)C)C(=O)O [Fusidic acid] + Cc1onc(-c2ccccc2)c1C(=O)N[C@@H]1C(=O)N2[C@@H]1SC(C)(C)[C@@H]2C(=O)O [Oxacillin] | 0.0607 | 0.044 | 0.0784 | 0.152 | – | – | – | –
4 | CC(=O)O[C@H]1C[C@@]2(C)[C@@H](C[C@@H](O)[C@H]3[C@@]4(C)CC[C@@H](O)[C@@H](C)[C@@H]4CC[C@@]32C)/C1=C(\CCC=C(C)C)C(=O)O [Fusidic acid] + Clc1ccc(COC(Cn2ccnc2)c2ccc(Cl)cc2Cl)c(Cl)c1 [Miconazole] | -0.0605 | 0.0483 | -0.0399 | -0.117 | – | – | – | –
5 | CC(=O)O[C@H]1C[C@@]2(C)[C@@H](C[C@@H](O)[C@H]3[C@@]4(C)CC[C@@H](O)[C@@H](C)[C@@H]4CC[C@@]32C)/C1=C(\CCC=C(C)C)C(=O)O [Fusidic acid] + Cn1nnc(-c2ccc(-c3ccc(N4C[C@H](CO)OC4=O)cc3F)cn2)n1 [Tedizolid] | -0.131 | -0.0507 | -0.048 | -0.0933 | – | – | – | –
6 | CC(=O)O[C@H]1C[C@@]2(C)[C@@H](C[C@@H](O)[C@H]3[C@@]4(C)CC[C@@H](O)[C@@H](C)[C@@H]4CC[C@@]32C)/C1=C(\CCC=C(C)C)C(=O)O [Fusidic acid] + O=C1CN(/N=C/c2ccc([N+](=O)[O-])o2)C(=O)N1 [Nitrofurantoin] | -0.0345 | -0.0226 | -0.0292 | -0.186 | – | – | – | –
7 | CC(=O)O[C@H]1C[C@@]2(C)[C@@H](C[C@@H](O)[C@H]3[C@@]4(C)CC[C@@H](O)[C@@H](C)[C@@H]4CC[C@@]32C)/C1=C(\CCC=C(C)C)C(=O)O [Fusidic acid] + Oc1cc(Cl)ccc1Oc1ccc(Cl)cc1Cl [Triclosan] | 0.0422 | -0.0259 | 0.0305 | 0.124 | – | – | – | –
8 | C[C@@H](O)[C@H]1C(=O)N2C(C(=O)O)=C(SCCNC=N)C[C@H]12 [Imipenem] + CC1(C)S[C@@H]2[C@H](NC(=O)Cc3ccccc3)C(=O)N2[C@H]1C(=O)O [PenicillinG] | 0.0587 | -0.0614 | -0.198 | -0.0999 | – | – | – | –
9 | C[C@@H](O)[C@H]1C(=O)N2C(C(=O)O)=C(SCCNC=N)C[C@H]12 [Imipenem] + CCCCCCCCCC(=O)N[C@@H]1[C@H]([C@@H]([C@H](O[C@H]1OC2=C3C=C4C=C2OC5=C(C=C(C=C5)[C@H]([C@H]6C(=O)N[C@@H](C7=C(C(=CC(=C7)O)OC8[C@H]([C@H]([C@@H]([C@H](O8)CO)O)O)O)C9=C(C=CC(=C9)[C@H](C(=O)N6)NC(=O)[C@@H]4NC(=O)[C@@H]1C2=CC(=CC(=C2)OC2=C(C=CC(=C2)[C@H](C(=O)N[C@H](CC2=CC(=C(O3)C=C2)Cl)C(=O)N1)N)O)O)O)C(=O)O)O[C@H]1[C@@H]([C@H]([C@@H]([C@H](O1)CO)O)O)NC(=O)C)Cl)CO)O)O [Teicoplanin] | – | – | – | – | -0.0771 | 0.0578 | 0.0599 | -0.102
10 | C[C@@H](O)[C@H]1C(=O)N2C(C(=O)O)=C(SCCNC=N)C[C@H]12 [Imipenem] + CC[C@H]1OC(=O)[C@H](C)C(=O)[C@H](C)[C@@H](O[C@@H]2O[C@H](C)C[C@H](N(C)C)[C@H]2O)[C@](C)(OC)C[C@@H](C)C(=O)[C@H](C)[C@H]2N(CCCCn3cnc(-c4cccnc4)c3)C(=O)O[C@]12C [Telithromycin] | 0.0561 | -0.0311 | -0.0123 | 0.0906 | – | – | – | –
11 | C[C@@H](O)[C@H]1C(=O)N2C(C(=O)O)=C(SCCNC=N)C[C@H]12 [Imipenem] + CN[C@H](CC(C)C)C(=O)N[C@H]1C(=O)N[C@@H](CC(N)=O)C(=O)N[C@H]2C(=O)N[C@H]3C(=O)N[C@H](C(=O)N[C@H](C(=O)O)c4cc(O)cc(O)c4-c4cc3ccc4O)[C@H](O[C@H]3C[C@](C)(N)[C@@H](O)[C@H](C)O3)c3ccc(c(Cl)c3)Oc3cc2cc(c3O[C@@H]2O[C@H](CO)[C@@H](O)[C@H](O)[C@H]2O[C@H]2C[C@](C)(NCc3ccc(-c4ccc(Cl)cc4)cc3)[C@@H](O)[C@H](C)O2)Oc2ccc(cc2Cl)[C@H]1O [Oritavancin] | 0.0293 | -0.0256 | 0.0479 | -0.0529 | – | – | – | –
12 | C[C@@H](O)[C@H]1C(=O)N2C(C(=O)O)=C(SCCNC=N)C[C@H]12 [Imipenem] + CO[C@@H]1[C@@H](OC(N)=O)[C@@H](O)[C@H](Oc2ccc3c(O)c(NC(=O)c4ccc(O)c(CC=C(C)C)c4)c(=O)oc3c2C)OC1(C)C [Novobiocin] | -0.166 | 0.0228 | -0.0163 | -0.107 | – | – | – | –
13 | C[C@@H](O)[C@H]1C(=O)N2C(C(=O)O)=C(SCCNC=N)C[C@H]12 [Imipenem] + CO[C@@]12[C@H](COC(N)=O)C3=C(C(=O)C(C)=C(N)C3=O)N1C[C@@H]1N[C@@H]12 [MitomycinC] | -0.0977 | -0.03 | 0.0577 | -0.0563 | – | – | – | –
14 | C[C@@H](O)[C@H]1C(=O)N2C(C(=O)O)=C(SCCNC=N)C[C@H]12 [Imipenem] + COc1cc(Cc2cnc(N)nc2N)cc(OC)c1OC [Trimethoprim] | -0.127 | -0.0457 | -0.0308 | 0.153 | – | – | – | –
15 | C[C@@H](O)[C@H]1C(=O)N2C(C(=O)O)=C(SCCNC=N)C[C@H]12 [Imipenem] + Oc1cc(Cl)ccc1Oc1ccc(Cl)cc1Cl [Triclosan] | -0.0589 | 0.0376 | 0.0211 | 0.0753 | – | – | – | –
16 | CCC[C@@H]1C[C@@H](C(=O)N[C@@H]([C@H]2O[C@H](SC)[C@H](O)[C@@H](O)[C@H]2O)[C@@H](C)O)N(C)C1 [Lincomycin] + CC1(C)S[C@@H]2[C@H](NC(=O)Cc3ccccc3)C(=O)N2[C@H]1C(=O)O [PenicillinG] | 0.0736 | 0.0494 | 0.0805 | 0.0998 | – | – | – | –
17 | CCC[C@@H]1C[C@@H](C(=O)N[C@@H]([C@H]2O[C@H](SC)[C@H](O)[C@@H](O)[C@H]2O)[C@@H](C)O)N(C)C1 [Lincomycin] + CC[C@H]1OC(=O)[C@H](C)C(=O)[C@H](C)[C@@H](O[C@@H]2O[C@H](C)C[C@H](N(C)C)[C@H]2O)[C@](C)(OC)C[C@@H](C)C(=O)[C@H](C)[C@H]2N(CCCCn3cnc(-c4cccnc4)c3)C(=O)O[C@]12C [Telithromycin] | 0.091 | -0.053 | -0.0488 | -0.171 | – | – | – | –
18 | CCC[C@@H]1C[C@@H](C(=O)N[C@@H]([C@H]2O[C@H](SC)[C@H](O)[C@@H](O)[C@H]2O)[C@@H](C)O)N(C)C1 [Lincomycin] + CN[C@H](CC(C)C)C(=O)N[C@H]1C(=O)N[C@@H](CC(N)=O)C(=O)N[C@H]2C(=O)N[C@H]3C(=O)N[C@H](C(=O)N[C@H](C(=O)O)c4cc(O)cc(O)c4-c4cc3ccc4O)[C@H](O[C@H]3C[C@](C)(N)[C@@H](O)[C@H](C)O3)c3ccc(c(Cl)c3)Oc3cc2cc(c3O[C@@H]2O[C@H](CO)[C@@H](O)[C@H](O)[C@H]2O[C@H]2C[C@](C)(NCc3ccc(-c4ccc(Cl)cc4)cc3)[C@@H](O)[C@H](C)O2)Oc2ccc(cc2Cl)[C@H]1O [Oritavancin] | 0.0264 | -0.0375 | -0.0583 | 0.0612 | – | – | – | –
19 | CCC[C@@H]1C[C@@H](C(=O)N[C@@H]([C@H]2O[C@H](SC)[C@H](O)[C@@H](O)[C@H]2O)[C@@H](C)O)N(C)C1 [Lincomycin] + CO[C@@]12[C@H](COC(N)=O)C3=C(C(=O)C(C)=C(N)C3=O)N1C[C@@H]1N[C@@H]12 [MitomycinC] | 0.0735 | -0.0874 | -0.0572 | -0.0879 | – | – | – | –
20 | CCC[C@@H]1C[C@@H](C(=O)N[C@@H]([C@H]2O[C@H](SC)[C@H](O)[C@@H](O)[C@H]2O)[C@@H](C)O)N(C)C1 [Lincomycin] + Oc1cc(Cl)ccc1Oc1ccc(Cl)cc1Cl [Triclosan] | -0.0218 | -0.224 | 0.0423 | -0.119 | – | – | – | –
21 | COc1c(N2C[C@@H]3CCCN[C@@H]3C2)c(F)cc2c(=O)c(C(=O)O)cn(C3CC3)c12 [Moxifloxacin] + C/C(=C\C(=O)OCCCCCCCCC(=O)O)C[C@@H]1OC[C@H](C[C@@H]2O[C@H]2[C@@H](C)[C@H](C)O)[C@@H](O)[C@H]1O [Pseudomonic acid] | 0.0399 | -0.019 | 0.0227 | 0.072 | – | – | – | –
22 | COc1c(N2C[C@@H]3CCCN[C@@H]3C2)c(F)cc2c(=O)c(C(=O)O)cn(C3CC3)c12 [Moxifloxacin] + CC1(C)S[C@@H]2[C@H](NC(=O)Cc3ccccc3)C(=O)N2[C@H]1C(=O)O [PenicillinG] | 0.0377 | 0.0629 | -0.0783 | 0.0895 | – | – | – | –
23 | COc1c(N2C[C@@H]3CCCN[C@@H]3C2)c(F)cc2c(=O)c(C(=O)O)cn(C3CC3)c12 [Moxifloxacin] + CC[C@H]1OC(=O)[C@H](C)C(=O)[C@H](C)[C@@H](O[C@@H]2O[C@H](C)C[C@H](N(C)C)[C@H]2O)[C@](C)(OC)C[C@@H](C)C(=O)[C@H](C)[C@H]2N(CCCCn3cnc(-c4cccnc4)c3)C(=O)O[C@]12C [Telithromycin] | 0.0281 | 0.0615 | 0.0472 | 0.0543 | – | – | – | –
24 | COc1c(N2C[C@@H]3CCCN[C@@H]3C2)c(F)cc2c(=O)c(C(=O)O)cn(C3CC3)c12 [Moxifloxacin] + CN[C@H](CC(C)C)C(=O)N[C@H]1C(=O)N[C@@H](CC(N)=O)C(=O)N[C@H]2C(=O)N[C@H]3C(=O)N[C@H](C(=O)N[C@H](C(=O)O)c4cc(O)cc(O)c4-c4cc3ccc4O)[C@H](O[C@H]3C[C@](C)(N)[C@@H](O)[C@H](C)O3)c3ccc(c(Cl)c3)Oc3cc2cc(c3O[C@@H]2O[C@H](CO)[C@@H](O)[C@H](O)[C@H]2O[C@H]2C[C@](C)(NCc3ccc(-c4ccc(Cl)cc4)cc3)[C@@H](O)[C@H](C)O2)Oc2ccc(cc2Cl)[C@H]1O [Oritavancin] | 0.024 | -0.0425 | 0.0436 | -0.052 | – | – | – | –
25 | COc1c(N2C[C@@H]3CCCN[C@@H]3C2)c(F)cc2c(=O)c(C(=O)O)cn(C3CC3)c12 [Moxifloxacin] + Oc1cc(Cl)ccc1Oc1ccc(Cl)cc1Cl [Triclosan] | 0.0151 | -0.0397 | -0.038 | 0.0747 | – | – | – | –
26 | O=C1CN(/N=C/c2ccc([N+](=O)[O-])o2)C(=O)N1 [Nitrofurantoin] + C/C(=C\C(=O)OCCCCCCCCC(=O)O)C[C@@H]1OC[C@H](C[C@@H]2O[C@H]2[C@@H](C)[C@H](C)O)[C@@H](O)[C@H]1O [Pseudomonic acid] | 0.127 | -0.0197 | -0.0266 | 0.0739 | – | – | – | –
27 | O=C1CN(/N=C/c2ccc([N+](=O)[O-])o2)C(=O)N1 [Nitrofurantoin] + CC1(C)S[C@@H]2[C@H](NC(=O)Cc3ccccc3)C(=O)N2[C@H]1C(=O)O [PenicillinG] | -0.0696 | -0.0568 | 0.0397 | 0.13 | – | – | – | –
